Reference: patent US4394383A, “N-Alkoxysulfenylcarbamates useful as insecticides” (priority 1981, dated 1983)
Like-named read-outs stand apart in the source and are kept apart here.

Legend:
Type in all cases: in vivo
[1] = test system: house flies, Musca domestica; assay: Insecticidal activity against house flies, topical application on the notum, 24 h mortality; details: for LD50: Musca domestica
Procedure: Representative compounds of the N-alkoxysulfenylcarbamate esters of the invention were tested for insecticidal activity against house flies, Musca domestica. Stock 1% concentrated solutions of each of the test compounds were made in acetone, and such solutions diluted with acetone to a concentration of 0.001-0.1%. House flies were treated topically on the notum by 1 μl of each of the diluted acetone solutions and percent mortality was counted 24 hours after application. Insects were held at constant temperature of 60° F.
(§1) The term "LD50 " represents the dose needed to kill 50% of the test animals. In interpreting the values in the table above, the lower the value for LD50 for house flies, the greater the insecticidal potency or toxicity of that particular compound. On the other hand, the higher the value of LD50 for mice, the lower the mammalian toxicity or the greater is the mammalian safety of such compound.

[2] = Mammalian toxicity, oral, Swiss white mice; details: mouse, in vivo, po
Procedure: (§2) Mammalian toxicity was determined against Swiss white mice. The test compound was applied orally using corn oil as the carrier. Results are given as LD50 in mg of compound per kg body weight.
as §1

Swiss white mice = assay: Mammalian toxicity, oral, Swiss white mice; details: mice / mammals; comparison with parent carbamate or purified compound
Procedure: as §2, §1

[3] = Table 2, polysulfide derivatives, oral in corn oil, read-out: Mice Toxicity LD50
[4] = Table 1, oral in corn oil, samples contained polysulfide derivative in the amounts indicated, read-out: Mice LD50

Row | SMILES | LD50 ([1]; read-out: House flies LD50) | LD50 [2, 4] | further results
1 | CCCCCCOSN(C)C(=O)Oc1cccc2c1OC(C)(C)C2 [CH2 (CH2)4 CH3, n = 1, 2,3-dihydro-2,2-dimethyl-7-benzofuranyl(hexyloxysulfenyl)(methyl)carbamate] |  |  | House flies LD50 ([1]; Table 2, polysulfide derivatives): 9.3 µg/g; LD50 [2, 3]: 37 mg/kg
2 | CCCCCCOSSN(C)C(=O)Oc1cccc2c1OC(C)(C)C2 [CH2 (CH2)4 CH3, n = 2, disulfide derivative of 2,3-dihydro-2,2-dimethyl-7-benzofuranyl(hexyloxysulfenyl)(methyl)carbamate] | 13 mg/kg |  | LD50 [2, 3]: 72 mg/kg
3 | COSSN(C)C(=O)Oc1cccc2c1OC(C)(C)C2 [CH3, n = 2, disulfide derivative of 2,3-dihydro-2,2-dimethyl-7-benzofuranyl(methoxysulfenyl)(methyl)carbamate] | 20.5 mg/kg |  | LD50 [2, 3]: 48 mg/kg
4 | CNC(=O)Oc1cccc2c1OC(C)(C)C2 [Carbofuran, 2,3-dihydro-2,2-dimethyl-7-benzofuranyl methylcarbamate, reference compound] | 11 mg/kg |  | LD50 ([1]; read-out: LD50 value for house flies): ~11 mg/kg; LD50 [2, 3]: 11 to 19 mg/kg; LD50 ([2]; read-out: LD50 for mice): 11 mg/kg
5 | COSN(C)C(=O)Oc1cccc2c1OC(C)(C)C2 [Example 1, 2,3-dihydro-2,2-dimethyl-7-benzofuranyl(methoxysulfenyl)(methyl)carbamate] | 15.5 mg/kg | 43 mg/kg | LD50 [2, 3]: 43 mg/kg
6 | CCOSN(C)C(=O)Oc1cccc2c1OC(C)(C)C2 [Example 2, 2,3-dihydro-2,2-dimethyl-7-benzofuranyl(ethoxysulfenyl)(methyl)carbamate] | 15.8 mg/kg | 46 mg/kg | 
7 | CC(C)OSN(C)C(=O)Oc1cccc2c1OC(C)(C)C2 [Example 3, 2,3-dihydro-2,2-dimethyl-7-benzofuranyl(isopropoxysulfenyl)(methyl)carbamate] | 31 mg/kg | 55 to 70 mg/kg | 
8 | CCCCCCOSN(C)C(=O)Oc1cccc2c1OC(C)(C)C2 [Example 4, 2,3-dihydro-2,2-dimethyl-7-benzofuranyl(hexyloxysulfenyl)(methyl)carbamate] | 9.3 mg/kg | 88 mg/kg | 
9 | CN(SOC1CCCCC1)C(=O)Oc1cccc2c1OC(C)(C)C2 [Example 5, 2,3-dihydro-2,2-dimethyl-7-benzofuranyl(cyclohexyloxysulfenyl)(methyl)carbamate] | 21.5 mg/kg | 69 mg/kg | 
10 | CN(SOCc1ccccc1)C(=O)Oc1cccc2c1OC(C)(C)C2 [Example 6, 2,3-dihydro-2,2-dimethyl-7-benzofuranyl(benzyloxysulfenyl)(methyl)carbamate] | 7.5 mg/kg | 59 mg/kg | 
11 | CCCCCCCCCCCCOSN(C)C(=O)Oc1cccc2c1OC(C)(C)C2 [Example 7, 2,3-dihydro-2,2-dimethyl-7-benzofuranyl(dodecyloxysulfenyl)(methyl)carbamate] | 21 mg/kg | 340 mg/kg | 
12 | CCCCOSN(C)C(=O)Oc1ccccc1OC(C)C [Example 8, 2-isopropoxyphenyl(butoxysulfenyl)(methyl)] | 46 mg/kg | > 1000 mg/kg | 
13 | CC(C)Oc1ccccc1OC(=O)N(C)SOCc1ccccc1 [Example 9, 2-isopropoxyphenyl(benzyloxysulfenyl)(methyl)carbamate] | 30 mg/kg | > 1000 mg/kg | LD50 ([2]; read-out: LD50 for mice): > 1000 mg/kg; mammalian toxicity / safety (in words) (Swiss white mice): much safer to mammals
14 | CCCCOSN(C)C(=O)Oc1cccc(C(C)C)c1 [Example 10, 3-isopropylphenyl(butoxysulfenyl)(methyl)carbamate] | 120 mg/kg | 130 mg/kg | 
15 | CC(C)c1cccc(OC(=O)N(C)SOCc2ccccc2)c1 [Example 11, 3-isopropylphenyl(benzyloxysulfenyl)(methyl)carbamate] | 175 mg/kg | 210 mg/kg | 
16 | CCC(CC)OSN(C)C(=O)Oc1cccc2c1OC(C)(C)C2 [Example 12, 2,3-Dihydro-2,2-dimethyl-7-benzofuranyl (1-ethylpropoxysulfeny)(methyl)carbamate] | 21 mg/kg | 63 mg/kg | 
17 | CN(SOC(C)(C)C)C(=O)Oc1cccc2c1OC(C)(C)C2 [Example 13, 2,3-Dihydro-2,2-dimethyl-7-benzofuranyl (tert-butoxysulfenyl)(methyl)carbamate] | 20 to 30 mg/kg | 75 mg/kg | 
18 | CCCCCCCCOSN(C)C(=O)Oc1cccc2c1OC(C)(C)C2 [Example 14, 2,3-Dihydro-2,2-dimethyl-7-benzofuranyl (methyl)-(octyloxysulfenyl)carbamate] | 13 mg/kg | 100 mg/kg | 
19 | CCCCCCCCCCOSN(C)C(=O)Oc1cccc2c1OC(C)(C)C2 [Example 15, 2,3-Dihydro-2,2-dimethyl-7-benzofuranyl (decyloxysulfenyl)(methyl)carbamate] | 7.3 mg/kg | 135 mg/kg | 
20 | COc1ccc(COSN(C)C(=O)Oc2cccc3c2OC(C)(C)C3)cc1 [Example 16, 2,3-Dihydro-2,2-dimethyl-7-benzofuranyl (P--methoxybenzyloxysulfenyl)(methyl)carbamate] | 13.8 mg/kg | 108 mg/kg | 
21 | CN(SOCc1ccc(C(C)(C)C)cc1)C(=O)Oc1cccc2c1OC(C)(C)C2 [Example 17, 2,3-Dihydro-2,2-dimethyl-7-benzofuranyl (P--tert-butylbenzyloxysulfenyl)(methyl)carbamate] | 15.5 mg/kg | 98 mg/kg | 
22 | CCCCCCCCCCCCCCCCCCOSN(C)C(=O)Oc1cccc2c1OC(C)(C)C2 [Example 18, 2,3-Dihydro-2,2-dimethyl-7-benzofuranyl (methyl)(octadecyloxysulfenyl)carbamate] | 75 mg/kg | ≥ 1000 mg/kg | 
23 | CNC(=O)Oc1ccccc1OC(C)C [propoxur, 2-isopropoxyphenyl methylcarbamate, reference compound] |  |  | LD50 ([2]; read-out: LD50 for mice): 62 mg/kg
